This is an account of results in patent publication US11001561B2, “Pyrimidinone derivatives as SHP2 antagonists” (MERCK PATENT GMBH, priority 2019, dated 2021).

Some results are limits rather than exact numbers.

The IC50 is the concentration needed to halve the response being measured.

For the first assay, the target named is Full length SHP2 protein (Recombinant Human SHP-2) (Homo sapiens (Human), UniProt Q06124). Kind of assay: SHP2 biochemical assay (DiFMUP substrate, activating peptide IRSI_2pY). As to conditions: SHP-2 biochemical assay IC50 (μM), activating peptide IRSI_2pY 140 nM, DiFMUP, 60 min.
Sequence of Full length SHP2 protein (Recombinant Human SHP-2) (Q06124 2-593): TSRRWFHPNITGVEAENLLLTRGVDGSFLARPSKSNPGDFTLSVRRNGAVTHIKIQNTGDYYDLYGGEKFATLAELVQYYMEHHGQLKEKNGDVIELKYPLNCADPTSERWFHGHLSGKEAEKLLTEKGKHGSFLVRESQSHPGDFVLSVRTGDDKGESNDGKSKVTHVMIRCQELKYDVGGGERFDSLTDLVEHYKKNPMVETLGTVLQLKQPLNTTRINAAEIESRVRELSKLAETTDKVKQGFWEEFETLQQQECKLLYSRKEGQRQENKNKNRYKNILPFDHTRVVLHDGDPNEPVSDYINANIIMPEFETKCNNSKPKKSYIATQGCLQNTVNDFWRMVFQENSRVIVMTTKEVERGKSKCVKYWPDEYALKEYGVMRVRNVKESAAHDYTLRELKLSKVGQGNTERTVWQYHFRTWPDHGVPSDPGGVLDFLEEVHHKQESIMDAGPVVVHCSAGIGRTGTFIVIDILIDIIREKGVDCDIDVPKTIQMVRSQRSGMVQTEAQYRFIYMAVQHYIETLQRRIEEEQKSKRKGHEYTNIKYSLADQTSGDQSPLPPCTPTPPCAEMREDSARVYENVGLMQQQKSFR
Description: The inhibition of SHP2 by compounds of the invention was monitored using the surrogate substrate DiFMUP after protein activation by a peptide bearing two appropriately spaced phosphotyrosine. […] The generation of the DiFMU product by activated SHP2 was monitored through Fluorescence measurement with a PerkinElmer Envision reader. The inhibitor dose response curves were analyzed with Genedata Screener.
As for `Cc1nc(C2=CC[C@@](C)(N)CC2)cc(=O)n1-c1cccc(Cl)c1Cl` (racemic) [Compound 6a, (+/−)-(3M)-6-[(4S)-4-amino-4-methylcyclohex-1-en-1-yl]-3-(2,3-dichlorophenyl)-2-methyl-3,4-dihydropyrimidin-4-one], the IC50 was 19 µM.

Consider `Cc1nc(N2CCC3(CC2)CO[C@@H](C)[C@H]3N)cc(=O)n1-c1c(F)ccc(Cl)c1Cl` (single isomer, unassigned) [Compound 32b], for which the IC50 was determined as 1.9 µM.

Take `Cc1c(N2CCC3(CC2)Oc2ncccc2[C@H]3N)nc(C)n(-c2cccc(Cl)c2Cl)c1=O` [Compound 79a, (3M)-6-[(3R)-3-amino-3H-spiro[furo[2,3-b]pyridine-2,4′-piperidin]-1′-yl]-3-(2,3-dichlorophenyl)-2,5-dimethylpyrimidin-4-one]: the 50% inhibitory concentration (IC50) stood at 0.3 µM.

For `Cc1nc(N2CCC(C)(N3CC[C@H](O)C3)CC2)cc(=O)n1-c1cccc(Cl)c1Cl` (racemic) [Compound 72b, (+/−)-(3M)-3-(2,3-dichlorophenyl)-6-{4-[(3R)-3-hydroxy-pyrrolidin-1-yl]-4-methylpiperidin-1-yl}-2-methyl-3,4-dihydropyrimidin-4-one], the IC50 amounted to 6.4 µM.

Take `Cc1nc(N2CCC(C)([C@H](O)CN)CC2)cc(=O)n1-c1cccc(Cl)c1Cl` (racemic) [Compound 57a, (+/−)-(3M)-6-{4-[(1S)-2-amino-1-hydroxyethyl]-4-methylpiperidin-1-yl}-3-(2,3-dichlorophenyl)-2-methyl-3,4-dihydropyrimidin-4-one]: the IC50 is > 10 µM.

Regarding `[2H]C([2H])([2H])c1c(N2CCC(C)(N)CC2)nc(C)n(-c2cccc(Cl)c2Cl)c1=O` [Compound 94, 6-(4-amino-4-methylpiperidin-1-yl)-3-(2,3-dichlorophenyl)-5-(D3)methyl-2-methyl-3,4-dihydropyrimidin-4-one], the concentration for half-maximal inhibition (IC50) was 1.4 µM.

Regarding `[2H]C([2H])([2H])c1c(N2CCC3(CC2)CO[C@@H](C)[C@H]3N)nc(C)n(-c2cccc(Cl)c2Cl)c1=O` (single isomer, unassigned) [Compound 63a], the IC50 was determined as 6 µM.

Take `Cc1nc(N2CCC[C@](N)(CC(F)F)CC2)cc(=O)n1-c1cccc(Cl)c1Cl` (racemic) [Compound 58a, (+/−)-(3M)-6-4-[(1R)-4-amino-4-(2,2-difluoroethyl)-azepan-1-yl]-3-(2,3-dichlorophenyl)-2-methyl-3,4-dihydropyrimidin-4-one]: the half-inhibitory concentration (IC50) was > 10 µM.

Staying with this assay, now noted: activating peptide IRSI_2pY 140 nM, DiFMUP, 60 min; read-out: SHP-2 biochemical assay IC50.
With `Cc1c(N2CCO[C@H](CN)C2)nc(C)n(-c2cccc(Cl)c2Cl)c1=O` [Compound 92, 6-[(2R)-2-(aminomethyl)morpholin-4-yl]-3-(2,3-dichlorophenyl)-2,5-dimethyl-3,4-dihydropyrimidin-4-one], the IC50 is 16 µM.

Turning to `Cc1nc(N2CC3CCCC3(CN)C2)cc(=O)n1-c1cccc(Cl)c1Cl` (stereo not drawn) [Compound 14, 6-[3a-(aminomethyl)-octahydrocyclopenta[c]pyrrol-2-yl]-3-(2,3-dichlorophenyl)-2-methyl-3,4-dihydropyrimidin-4-one], the IC50 was found to be 6.6 µM.

On to `Cc1c(N2CCC3(CCC[C@@H]3N)CC2)nc(N)n(-c2cccc(Cl)c2Cl)c1=O` (single isomer, unassigned) [Compound 78a], for which the IC50 is > 50 µM.

As for `Cc1nc(N2C[C@H]3COCC[C@@]3(CN)C2)cc(=O)n1-c1cccc(Cl)c1Cl` (racemic) [Compound 19, (+/−)-6-[(3aS,7aR)-7a-(aminomethyl)-octahydropyrano[3,4-c]pyrrol-2-yl]-3-(2,3-dichlorophenyl)-2-methyl-3,4-dihydropyrimidin-4-one], the IC50 stood at 4 µM.

For the compound `Cc1nc(C2=CCC(C)(CN)CC2)cc(=O)n1-c1cccc(Cl)c1Cl` (stereo not drawn) [Compound 9, 6-[4-(aminomethyl)-4-methylcyclohex-1-en-1-yl]-3-(2,3-dichlorophenyl)-2-methyl-3,4-dihydropyrimidin-4-one], the IC50 was 16 µM.

For the compound `Cc1ccc(Cl)c(Cl)c1-n1c(C)nc(N2CCC3(CC2)CO[C@@H](C)[C@H]3N)c(C)c1=O` [Compound 102, 6-((3S,4S)-4-Amino-3-methyl-2-oxa-8-aza-spiro[4.5]dec-8-yl)-3-(2,3-dichloro-6-methyl-phenyl)-2,5-dimethyl-3H-pyrimidin-4-one], the IC50 is 7.3 µM.

`CCc1c(N2CCC3(CC2)CO[C@@H](C)[C@H]3N)nc(C)n(-c2cccc(Cl)c2Cl)c1=O` [Compound 36, 6-[(3S,4S)-4-amino-3-methyl-2-oxa-8-azaspiro[4.5]decan-8-yl]-3-(2,3-dichlorophenyl)-5-ethyl-2-methyl-3,4-dihydropyrimidin-4-one]: the half-maximal inhibitory concentration (IC50) is 5 µM.

For `Cc1c(N2CCC(C)(CN)CC2)nc(C)n(-c2ccc3ccccc3c2Cl)c1=O` [Compound 54, 6-(4-Aminomethyl-4-methyl-piperidin-1-yl)-3-(1-chloro-naphthalen-2-yl)-2,5-dimethyl-3H-pyrimidin-4-one], the half-inhibitory concentration (IC50) stood at 5.6 µM.

Consider `Cc1nc(N2CC3CCC(C2)N3)cc(=O)n1-c1cccc(Cl)c1Cl` [Compound 56, 6-3,8-diazabicyclo[3.2.1]octan-3-yl-3-(2,3-dichlorophenyl)-2-methyl-3,4-dihydropyrimidin-4-one], for which the half-maximal inhibitory concentration (IC50) is 5.2 µM.

On to `Cc1c(N2CCC(CN)(CO)CC2)nc(C)n(-c2cccc(Cl)c2Cl)c1=O` [Compound 88, 6-[4-(aminomethyl)-4-(hydroxymethyl)piperidin-1-yl]-3-(2,3-dichlorophenyl)-2,5-dimethyl-3,4-dihydropyrimidin-4-one], for which the 50% inhibitory concentration (IC50) was 0.59 µM.

For `Cc1nc(N2CCC(C)(CN)CC2)cc(=O)n1-c1c(F)ccc(Cl)c1Cl` (single isomer, unassigned) [Compound 33b, (3M)-6-[4-(aminomethyl)-4-methylpiperidin-1-yl]-3-(2,3-dichloro-6-fluorophenyl)-2-methyl-3,4-dihydropyrimidin-4-one], the half-maximal inhibitory concentration (IC50) came to 5.7 µM.

Consider `Cc1c(N2CCCC3(CCC3N)C2)nc(C)n(-c2cccc(Cl)c2Cl)c1=O` (stereo not drawn) [Compound 90, 6-1-amino-6-azaspiro[3.5]nonan-6-yl-3-(2,3-dichlorophenyl)-2,5-dimethyl-3,4-dihydropyrimidin-4-one], for which the half-maximal inhibitory concentration (IC50) is 3.9 µM.

With `Cc1c(N2CCC3(CC2)CO[C@@H](C)[C@H]3N)nc(C)n(-c2cccc3ncsc23)c1=O` [Compound 84, 6-((3S,4S)-4-Amino-3-methyl-2-oxa-8-aza-spiro[4.5]dec-8-yl)-3-benzothiazol-7-yl-2,5-dimethyl-3H-pyrimidin-4-one], the IC50 is > 10 µM.

As for `Cc1nc(N2CCC(NC[C@H](O)CO)CC2)cc(=O)n1-c1cccc(Cl)c1Cl` [Compound 42, 3-(2,3-dichlorophenyl)-6-(4-{[(2S)-2,3-dihydroxypropyl]amino}-piperidin-1-yl)-2-methyl-3,4-dihydropyrimidin-4-one], the IC50 stood at 4.3 µM.

Consider `CC1(CN)CCN(c2cc(=O)n(-c3cccc(Cl)c3Cl)c(C(F)F)n2)CC1` [Compound 17, 6-[4-(aminomethyl)-4-methylpiperidin-1-yl]-3-(2,3-dichlorophenyl)-2-(difluoromethyl)-3,4-dihydropyrimidin-4-one], for which the IC50 turned out to be 3 µM.

`Cc1nc(N2CCC(CO)(CCN)CC2)cc(=O)n1-c1cccc(Cl)c1Cl` [Compound 16, 6-[4-(2-aminoethyl)-4-(hydroxymethyl)piperidin--yl]-3-(2,3-dichlorophenyl)-2-methyl-3,4-dihydropyrimidin-4-one]: the IC50 turned out to be 4.3 µM.

Turning to `Cc1c(N2CCC(C)(N)CC2)nc(C)n(-c2cccc3ncsc23)c1=O` [Compound 43, 6-(4-Amino-4-methyl-piperidin-1-yl)-3-benzothiazol-7-yl-2,5-dimethyl-3H-pyrimidin-4-one], the half-inhibitory concentration (IC50) is > 10 µM.

As to `Cc1nc(N2CCC(C)(CN)CC2)cc(=O)n1-c1c(F)ccc(Cl)c1Cl` (single isomer, unassigned) [Compound 33a, (3P)-6-[4-(aminomethyl)-4-methylpiperidin-1-yl]-3-(2,3-dichloro-6-fluorophenyl)-2-methyl-3,4-dihydropyrimidin-4-one], the IC50 was > 10 µM.

On to `Cc1c(N2CCC3(CC2)Oc2cnccc2[C@@H]3N)nc(C)n(-c2cccc(Cl)c2Cl)c1=O` (single isomer, unassigned) [Compound 80d], for which the half-maximal inhibitory concentration (IC50) turned out to be 1.4 µM.

Consider `Cc1c(N2CCC(C)(N)CC2)nc(C)n(-c2cccc(Cl)c2Cl)c1=O` [Compound 12, 6-(4-amino-4-methylpiperidin-1-yl)-3-(2,3-dichlorophenyl)-2,5-dimethyl-3,4-dihydropyrimidin-4-one], for which the IC50 is 1 µM.

As to `Cc1nc(N2CCC(O)(CN)CC2)cc(=O)n1-c1cccc(Cl)c1Cl` [Compound 28, 6-[4-(aminomethyl)-4-hydroxypiperidin-1-yl]-3-(2,3-dichlorophenyl)-2-methyl-3,4-dihydropyrimidin-4-one], the IC50 turned out to be 3.5 µM.

Consider `Cc1nc(N2CCC(C)(N)CC2)c(C2CC2)c(=O)n1-c1cccc(Cl)c1Cl` [Compound 93, 6-(4-Amino-4-methyl-piperidin-1-yl)-5-cyclopropyl-3-(2,3-dichloro-phenyl)-2-methyl-3H-pyrimidin-4-one], for which the IC50 worked out at 12 µM.

Regarding `Cc1c(N2CCC3(CC2)CC3CN)nc(C)n(-c2cccc(Cl)c2Cl)c1=O` (stereo not drawn) [Compound 86, 6-[1-(aminomethyl)-6-azaspiro[2.5]octan-6-yl]-3-(2,3-dichlorophenyl)-2,5-dimethyl-3,4-dihydropyrimidin-4-one], the 50% inhibitory concentration (IC50) stood at 4.6 µM.

With `Cc1c(N2CCC3(CC2)CO[C@@H](C)[C@H]3N)nc(C)n(-c2ccc3ccccc3c2)c1=O` [Compound 45, 6-((3S,4S)-4-Amino-3-methyl-2-oxa-8-aza-spiro[4.5]dec-8-yl)-2,5-dimethyl-3-naphthalen-2-yl-3H-pyrimidin-4-one], the half-inhibitory concentration (IC50) came to 1.2 µM.

Take `Cc1c(N2CCC(C)(CN)CC2)nc(C)n(-c2ccc3nccnc3c2)c1=O` [Compound 55, 6-(4-Aminomethyl-4-methyl-piperidin-1-yl)-2,5-dimethyl-3-quinoxalin-6-yl-3H-pyrimidin-4-one]: the half-inhibitory concentration (IC50) was > 10 µM.
